Source: the supplement of paper PMC10307832

Legend:
Crizotinib = compound: C[C@@H](Oc1cc(-c2cnn(C3CCNCC3)c2)cnc1N)c1c(Cl)ccc(F)c1Cl [Crizotinib]; assay: relative viability (nuclei count vs DMSO), 5 days (fraction); higher = more cells survive
Summary of the method: (§1)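 Only plates meeting two conditions passed: control CV below 25% and at least one doubling. Lung cancer cell lines, kept overnight at 37 °C in 1536-well plates, were pinned with five library-drug doses (not always all listed) √10 apart on vehicle-anchored plates and grown 5 days without medium change. A one-step fix, permeabilisation and Hoechst stain preceded 4× imaging and MetaXpress nuclear counting. Viability equals treated-well nuclei divided by vehicle-well nuclei, as the median over plates.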

Carfilzomib = compound: CC(C)C[C@H](NC(=O)[C@H](CCc1ccccc1)NC(=O)CN1CCOCC1)C(=O)N[C@@H](Cc1ccccc1)C(=O)N[C@@H](CC(C)C)C(=O)[C@@]1(C)CO1 [Carfilzomib]; assay: as above
Summary of the method: as §1

Cell Line	relative viability (Crizotinib; 0.01 µM)	relative viability (Crizotinib; 0.03162 µM)	relative viability (Crizotinib; 0.1 µM)	relative viability (Crizotinib; 0.3162 µM)	relative viability (Crizotinib; 1 µM)	relative viability (Crizotinib; 1 µM, anchor plate)	relative viability (Carfilzomib; 0.001 µM)	relative viability (Carfilzomib; 0.003162 µM)	relative viability (Carfilzomib; 0.01 µM)	relative viability (Carfilzomib; 0.03162 µM)	relative viability (Carfilzomib; 0.1 µM)
NCI-H358	0.89	0.963	0.902	0.868	0.949	0.574	0.926	1.03	0.953	0.154	0.133
NCI-H441	0.99	0.941	0.947	–	1.02	0.726	1.2	1.19	0.432	0.151	0.118
NCI-H460	0.961	0.999	0.996	0.991	1.03	0.905	0.929	1.01	1	0.739	0.0357
NCI-H520	0.895	0.897	0.894	0.836	0.915	0.764	0.994	1.06	0.782	0.187	0.199
NCI-H522	0.919	0.954	0.888	–	0.893	–	0.889	1.11	1.01	0.734	0.375
NCI-H596	1.02	1.04	1.09	0.98	0.967	0.989	0.951	0.949	0.95	0.697	0.222
NCI-H647	–	1.01	1.01	0.783	–	1.07	0.873	1.06	0.978	0.0791	0.038
NCI-H650	1.07	0.97	1.13	0.697	1.03	0.705	0.811	1.03	0.886	0.751	0.196
NCI-H661	0.933	0.95	0.945	1.06	1	0.993	0.986	1.05	1.02	0.995	0.535
NCI-H727	0.693	1.03	1	0.779	1.17	0.868	0.886	0.998	1.12	0.698	0.423
NCI-H838	0.86	–	0.972	0.888	0.928	0.852	0.982	1.05	0.951	0.875	0.151
NCI-H1299	0.976	1.02	1.02	–	0.976	0.932	1.03	1.02	1.02	0.577	0.158
NCI-H1355	0.983	1.01	1.05	0.797	0.981	1.05	0.876	1.04	1.01	0.946	0.18
NCI-H1395	0.819	0.943	1.05	0.811	0.739	–	0.764	1.08	0.669	0.437	0.34
NCI-H1437	0.951	1.03	0.996	0.884	1.08	–	0.952	1.07	1.04	0.884	0.358
NCI-H1563	0.887	0.995	0.908	1	1.06	0.843	0.945	1.08	1.03	0.934	0.613
